Data on 8 molecules can be found in patent US10272081B2, “SHIP1 modulators and methods related thereto” (Aquinox Pharmaceuticals (Canada) Inc., priority 2013, dated 2019).

In assay [1] the target is T1, His-hSHIP1 enzyme (Homo sapiens, UniProt Q92835).
T1 construct: His
T1 sequence (Q92835 1-1189): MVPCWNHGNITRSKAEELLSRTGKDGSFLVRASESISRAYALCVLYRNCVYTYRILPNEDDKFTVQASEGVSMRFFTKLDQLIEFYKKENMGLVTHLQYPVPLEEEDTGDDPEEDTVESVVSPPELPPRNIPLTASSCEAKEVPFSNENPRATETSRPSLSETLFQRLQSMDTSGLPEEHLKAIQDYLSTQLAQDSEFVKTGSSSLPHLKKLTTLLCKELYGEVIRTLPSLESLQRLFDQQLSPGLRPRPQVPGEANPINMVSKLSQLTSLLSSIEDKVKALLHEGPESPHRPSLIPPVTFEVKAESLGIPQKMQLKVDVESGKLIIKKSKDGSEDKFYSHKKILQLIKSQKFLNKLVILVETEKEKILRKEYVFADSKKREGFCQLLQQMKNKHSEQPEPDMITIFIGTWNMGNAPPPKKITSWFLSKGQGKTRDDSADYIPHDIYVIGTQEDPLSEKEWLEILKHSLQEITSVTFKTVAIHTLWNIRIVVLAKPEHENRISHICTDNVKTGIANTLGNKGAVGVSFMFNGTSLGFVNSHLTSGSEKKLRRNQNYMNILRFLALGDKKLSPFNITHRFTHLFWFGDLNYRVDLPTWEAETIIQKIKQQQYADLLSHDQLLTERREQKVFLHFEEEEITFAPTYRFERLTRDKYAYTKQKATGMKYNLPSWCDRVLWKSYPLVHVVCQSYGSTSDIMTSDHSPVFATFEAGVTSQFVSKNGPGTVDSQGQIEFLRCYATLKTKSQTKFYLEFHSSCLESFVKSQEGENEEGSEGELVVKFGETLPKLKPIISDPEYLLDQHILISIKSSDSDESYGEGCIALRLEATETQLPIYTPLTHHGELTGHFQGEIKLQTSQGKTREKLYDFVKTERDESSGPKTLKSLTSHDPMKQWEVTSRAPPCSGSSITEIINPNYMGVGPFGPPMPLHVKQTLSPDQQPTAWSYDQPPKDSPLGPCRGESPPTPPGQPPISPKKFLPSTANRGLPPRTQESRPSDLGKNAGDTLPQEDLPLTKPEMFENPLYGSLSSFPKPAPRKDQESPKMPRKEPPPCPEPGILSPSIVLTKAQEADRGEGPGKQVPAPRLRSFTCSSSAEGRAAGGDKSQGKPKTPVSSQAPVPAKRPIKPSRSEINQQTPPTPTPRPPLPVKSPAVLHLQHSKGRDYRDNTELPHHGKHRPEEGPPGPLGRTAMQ
The assay is described as follows: His-hSHIP1 activity, approach 1 (phosphate release from IP4, Biomol Green). Format: biochemical. Conditions: activation of His-hSHIP1; IP4 50 μM; test compound 0-300 μM; no asterisk in Table 2. As to the method: (§1) Test compounds are dissolved in 95% ethanol to form stock solutions. Before screening, the stock solutions are diluted with Phosphatase Assay Buffer (20 mM Tris-HCL, 10 mM MgCl2 pH 7.5, 0.02% Tween 20) to form working assay solutions that contain 10% ethanol. The assay is carried out on 96-well microtiter plates using a modified procedure of that reported by Ong et al., Blood 110, 1942-1949, 2007 and Yang et al., Org Lett 7, 1073-1076, 2005, both of which references are incorporated herein by reference in their entirety.
Data were generated by one of two variant methods. Test compounds are screened by one of two approaches described as follows. In the first approach, each reaction contains 5 μL of His-hSHIP1 enzyme (5-20 ng), 10 μL of the substrate, 1,3,4,5-inositol tetrakisphosphate (IP4; 50 μM final), 5 μL of Phosphatase Assay Buffer, and 5 µL of test compound at various concentrations in 10% ethanol (0-300 μM final). Control blanks are also prepared by replacing His-hSHIP1 enzyme, IP4, or test compounds with Phosphatase Assay Buffer. After adding the reaction components in a 96-well microtiter plate on ice, the reaction is mixed by briefly shaking the plate vigorously. The reaction is then incubated at 37° C. for 15 min with gentle shaking followed by addition of 100 μL of Biomol Green Reagent (BIOMOL, Pa., USA) to terminate the reaction. The free phosphate released from IP4 by His-hSHIP1 binds to the Biomol Green Reagent, which turns the dye to green color. After incubating the mixture for 20 min at room temperature for color development, the absorbance is read with SpectraMax Plus 96-well plate reader (Molecular Devices, Sunnyvale, Calif., USA) at a wavelength of 650 nm.

The subject of assay [2] is Akt phosphorylation in Molt-4 (SHIP1+) lymphocytes. The assay is described as follows: Akt phosphorylation in lymphocytes, Molt-4 (Western blot). Format: cell-based. Also noted: key: +: inhibits Akt phosphorylation at 10 μM; −: no effect on Akt phosphorylation at 10 μM. The following applies: 10 μM; IGF-1 stimulated Molt-4 (PTEN−/SHIP1+) cells. As to the method: (§2) Jurkat (PTEN−/SHIP1−) or Molt-4 (PTEN−/SHIP1+) cells are starved in serum free RPMI for overnight. In a 15 mL conical tube, 2-3 million serum starved cells (1 million cells per mL) are treated with various concentrations of test compound (0.1, 1, or 10 μM final in 0.1% DMSO) for 30 min at 37° C. followed by stimulation with 100 ng/mL of IGF-1 for 1 hour at 37° C. After stimulation, cells are washed once with ice-cold DPBS and lysed with Lysis Buffer (20 mM Tris-HCl, pH 7.5, 140 mM NaCl, 1% NP-40, Complete Mini Protease Inhibitor Cocktail, 10 mM NaF, 1 mM Na3VO4, 1 mM β-glycerolphosphate) on ice for 30 min with vortexing every 10 min. Samples are then centrifuged at 13,000 rpm for 20 min, and supernatants are collected as total cell lysate samples. Protein concentration is determined using bicinchonic acid assay, and about 15 μg of total protein from each sample is loaded and separated on a 4-12% Tris-Glycine gel. After SDS-PAGE, proteins are transferred from the gel to a nitrocellulose membrane. The membrane is blocked in 5% BSA in PBS containing 0.1% Tween-20 (PBS-T) for 1 hour at room temperature before probing with primary antibodies for overnight at 4° C. The following antibodies are used: mouse anti-SHIP1 (1:500 dilution; Santa Cruz, Calif., USA), rabbit anti-phospho-Akt(Ser473) (1:1000 dilution; Cell Signaling Technologies, MA, USA), rabbit anti-Akt (1:1000; Cell Signaling Technologies, MA, USA), and rabbit anti-actin (1:2000; Cell Signaling Technologies, MA, USA). The membrane is then incubated with goat anti-rabbit or anti-mouse secondary antibodies (1:3000) for 1 hour at room temperature. Target proteins on the membrane are detected with ECL solution and exposed on a film.
For orientation: In western blotting, separated proteins are transferred to a membrane and probed.

The subject of assay [3] is Akt phosphorylation in Jurkat (SHIP1−) lymphocytes. The assay is described as follows: Akt phosphorylation in lymphocytes, Jurkat (Western blot). Format: cell-based. Also noted: key: +: inhibits Akt phosphorylation at 10 μM; −: no effect on Akt phosphorylation at 10 μM. Conditions: 10 μM; IGF-1 stimulated Jurkat (PTEN−/SHIP1−) cells. How it is done:
as §2

Assay [4] deals with T1, His-hSHIP1 enzyme. Description: His-hSHIP1 activity, approach 2 (ratio of initial velocities IP4 25/IP4 250). Conditions: ratio of initial velocities IP4 25/IP4 250 versus reference SHIP1 activator; asterisk in Table 2. Format: biochemical. Further details: key: +++: higher than reference or reference - 15%; ++: reference - 16% to reference - 30%; +: reference - 31% or lower. How it is done:
as §1
In the second approach, a master mix is prepared that contains […] (0.4-1.6 ng/μL final), 25 μL of the substrate, IP4 (25 or 250 μM final), and 50 μL of test compound in 3.3% ethanol ([…]). Control blanks are also prepared by replacing His-hSHIP1 enzyme, IP4, or test compounds with Phosphate Assay Buffer. […] Each reaction component is preincubated at 37° C. for 30 min before adding to a 96-well microtiter plate. The master mix is then incubated at 37° C. At time 0, 20, 25 and 30 min, 25 μL of the master mix is removed and transferred to a new 96-well microtiter plate, to which 100 μL of Biomol Green Reagent is added to stop the reaction. After incubating the mixture for 20 min at room temperature for color development, the absorbance is read with SpectraMax Plus 96-well plate reader at a wavelength of 650 nm. Phosphate released is plotted against time to calculate the initial velocities (i.e., slope of the graph) at each IP4 concentration. The initial velocities are baseline corrected and the ratio of initial velocities (IP425/IP4250) is calculated and used to rate the test compounds.

Take `Cc1cc(O)cc(C(=O)[C@H]2C(C)C(N)C[C@H]3C(C)(C)CCC[C@]23C)c1.Cl` (stereo partly drawn) [Compound No. 22, 3-{[(1S,4aS,8aS)-3-amino-2,5,5,8a-tetramethyl-decahydronaphthalen-1-yl]carbonyl}-5-methylphenol hydrochloride]: the “Scoring, Approach 1 (% increase relative to background)” value at His-hSHIP1 enzyme [1] is reported as “+ (0 < x < 50)”. In addition, the “Molt-4 (SHIP +), Akt phosphorylation” value in assay [2] is given as “+”. Moreover, the “Jurkat (SHIP1 −), Akt phosphorylation” value in assay [3] was “−”. For `Cc1cc(O)cc(C(=O)[C@H]2[C@H](C)[C@H](NCc3cnc[nH]3)C[C@H]3C(C)(C)CCC[C@]23C)c1` [Compound No. 137, 3-{[(1S,2S,3R,4aS,8aS)-3-[(1H-imidazol-5-ylmethyl)amino]-2,5,5,8a-tetramethyl-decahydronaphthalen-1-yl]carbonyl}-5-methylphenol], on His-hSHIP1 enzyme [4], the “Scoring, Approach 2 (Initial velocity Ratio)” value is reported as “++”.

On to `Cc1cc(O)cc(C[C@H]2[C@@H](C(=O)O)CC[C@H]3C(C)(C)CCC[C@]23C)c1` [Compound No. 20, (1S,2S,4aS,8aR)-1-[(3-hydroxy-5-methylphenyl)methyl]-5,5,8a-trimethyl-decahydronaphthalene-2-carboxylic acid], for which the “Scoring, Approach 2 (Initial velocity Ratio)” value on His-hSHIP1 enzyme [4] was “+++”. Besides, the “Molt-4 (SHIP +), Akt phosphorylation” value in assay [2] was “−”. Also, in assay [3], the “Jurkat (SHIP1 −), Akt phosphorylation” value is on record as “−”. For `CC1(C)CCC[C@]2(C)[C@@H](Cc3cc(O)cc(O)c3)[C@@H](C(=O)O)CC[C@@H]12` [Compound No. 157, (1S,2S,4aS,8aR)-1-[(3,5-dihydroxyphenyl)methyl]-5,5,8a-trimethyl-decahydronaphthalene-2-carboxylic acid], at His-hSHIP1 enzyme [4], the “Scoring, Approach 2 (Initial velocity Ratio)” value is “++”. With `C[C@H]1CC[C@H]2C(C)(C)CCC[C@]2(C)[C@H]1CC(=O)Nc1cc(O)cc(O)c1` [Compound No. 149, 2-[(1S,2S,4aS,8aR)-2,5,5,8a-tetramethyl-decahydronaphthalen-1-yl]-N-(3,5-dihydroxyphenyl)acetamide], on His-hSHIP1 enzyme [4], the “Scoring, Approach 2 (Initial velocity Ratio)” value is given as “++”.

With `Cc1cc(O)cc(C(=O)[C@H]2[C@H](C)C(C(=O)O)C[C@H]3C(C)(C)CCC[C@]23C)c1` (stereo partly drawn) [Compound No. 68, (3S,4S,4aS,8aS)-4-[(3-hydroxy-5-methylphenyl)carbonyl]-3,4a,8,8-tetramethyl-decahydronaphthalene-2-carboxylic acid], the “Scoring, Approach 2 (Initial velocity Ratio)” value on His-hSHIP1 enzyme [4] was “+++”. Besides, the “Molt-4 (SHIP +), Akt phosphorylation” value in assay [2] is “−”. Besides, the “Jurkat (SHIP1 −), Akt phosphorylation” value in assay [3] is “−”.

Consider `C[C@@H]1[C@H](NCc2cnc[nH]2)C[C@H]2C(C)(C)CCC[C@]2(C)[C@H]1C(=O)c1cc(O)cc(O)c1` [Compound No. 119, 5-{[(1S,2S,3R,4aS,8aS)-3-[(1H-imidazol-5-ylmethyl)amino]-2,5,5,8a-tetramethyl-decahydronaphthalen-1-yl]carbonyl}benzene-1,3-diol], for which the “Scoring, Approach 2 (Initial velocity Ratio)” value on His-hSHIP1 enzyme [4] is reported as “++”.

Take `C[C@@H]1[C@H](NS(C)(=O)=O)C[C@H]2C(C)(C)CCC[C@]2(C)[C@H]1C(=O)c1cc(O)cc(O)c1` [Compound No. 179, N-[(2R,3S,4S,4aS,8aS)-4-[(3,5-dihydroxyphenyl)carbonyl]-3,4a,8,8-tetramethyl-decahydronaphthalen-2-yl]methanesulfonamide]: on His-hSHIP1 enzyme [4], the “Scoring, Approach 2 (Initial velocity Ratio)” value is reported as “+”.
